From patent publication US8178688B2, “Benzamidine derivatives, process for the preparation thereof and pharmaceutical composition comprising the same” (Dong Wha Pharmaceutical Co., Ltd., priority 2004, dated 2012)
Read-outs that look alike come from different tables or passages of the source.

Experiments:
[1] = system: osteoclast differentiation; test: Inhibitory effects on osteoclast differentiation (co-culture of bone marrow cells with osteoblast, TRAP staining); type: cell-based, mice; settings: Mus musculus, Osteoclast, 168 h, read-out: % inhibitory activity on osteoclastogenesis
Outline: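 Percent inhibition versus control is based on microscope counts of TRAP-positive osteoclasts (3 or more nuclei) after 7 days of compound exposure. Cultures paired ddY mouse marrow cells with ICR calvarial osteoblasts, driven by dexamethasone 10^−7M plus vitamin D3 10^−8M, with medium and compound changed every 2–3 days.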

cells = test: Cytotoxicity test (MTT); type: cell-based; settings: 10^−6M, 72 hrs, compared with the control group
Procedure: Cytotoxic effect of benzamidine derivatives was evaluated by the experiment described below.
The test substance was diluted in appropriate solvent at 10^−2M concentration. […] Cells to be used in cytotoxitic test were plated on a 96-well microplate in a dose of 1×10^4 cell/100 μL per well and cultured for 72 hrs. 25 μL of MTT [3-(4,5-dimethyl-2-thiazolyl)-2,5-diphenyl-2H-tetrazolium bromide] dissolved in PBS at 2 mg/mL were added before 4 hrs of the end of culture. After reaction, the plates were centrifuged, medium was decanted and 100 μL of DMSO was added to dissolve formazan. Lastly, the absorbance of developed plates was measured at 540 nm.

[2] = 1 μm, co-culture of bone marrow cells and osteoblast, 7 days, TRAP-positive osteoclasts versus controls
[3] = 1 m, co-culture of bone marrow cells and osteoblast, 7 days, TRAP-positive osteoclasts versus controls

CCCCc1sc(C(C)C)nc1-c1ccc(OCCCCCOc2ccc(C(=N)NO)cc2)cc1 [Example 32, N-hydroxy-4-(5-[4-(5-butyl-2-isopropyl-1,3-thiazol-4-yl)phenoxy]pentoxy)-benzamidine]
inhibition at 1 µM [1, 2]: 59.4% | Survival rates of the cells (cells; MC3T3-E1 cells): 100.0% | Survival rates of the cells (cells; ST2 cells): 55.1%

CCCCc1sc(C2CCCCC2)nc1-c1ccc(OCCCCCOc2ccc(C(=N)NO)cc2)cc1 [Example 35, N-hydroxy-4-(5-[4-(5-butyl-2-cyclohexyl-1,3-thiazol-4-yl)phenoxy]pentoxy)-benzamidine]
inhibition at 1 µM [1]: 69.8% | Survival rates of the cells (cells; MC3T3-E1 cells): 73.6% | Survival rates of the cells (cells; ST2 cells): 56.3%

CCCCc1sc(C(C)(C)C)nc1-c1ccc(OCCCCCOc2ccc(C(=N)NO)cc2)cc1 [Example 37, N-hydroxy-4-(5-[4-(5-butyl-2-t-butyl-1,3-thiazol-4-yl)phenoxy]pentoxy)-benzamidine]
inhibition at 1 µM [1]: 52.9% | Survival rates of the cells (cells; MC3T3-E1 cells): 74.4% | Survival rates of the cells (cells; ST2 cells): 40.5%

N=C(NO)c1ccc(OCCCCCOc2ccc(-c3nc(-c4ccccc4)sc3Cc3ccccc3)cc2)cc1 [Example 40, N-hydroxy-4-(5-[4-(5-benzyl-2-phenyl-1,3-thiazol-4-yl)phenoxy]pentoxy)-benzamidine]
inhibition at 1 µM [1, 2]: 60.1% | Survival rates of the cells (cells; MC3T3-E1 cells): 100.0% | Survival rates of the cells (cells; ST2 cells): 53.3%

Cc1nc(-c2ccc(OCCCCCOc3ccc(C(=N)NO)cc3)cc2)c(CC2CCCC2)s1 [Example 45, N-hydroxy-4-(5-[4-(5-cyclopentylmethyl-2-methyl-1,3-thiazol-4-yl)phenoxy]pentoxy)-benzamidine]
inhibition at 1 µM [1, 2]: 97.7% | Survival rates of the cells (cells; MC3T3-E1 cells): 75.9% | Survival rates of the cells (cells; ST2 cells): 37.0%

CCc1nc(-c2ccc(OCCCCCOc3ccc(C(=N)NO)cc3)cc2)c(CC2CCCC2)s1 [Example 46, N-hydroxy-4-(5-[4-(5-cyclopentylmethyl-2-ethyl-1,3-thiazol-4-yl)phenoxy]pentoxy)-benzamidine]
inhibition at 1 µM [1, 2]: 96.9% | Survival rates of the cells (cells; MC3T3-E1 cells): 100.0% | Survival rates of the cells (cells; ST2 cells): 48.3%

N=C(NO)c1ccc(OCCCCCOc2ccc(-c3nc(-c4ccccc4)sc3CC3CCCC3)cc2)cc1 [Example 48, N-hydroxy-4-(5-[4-(5-cyclopentylmethyl-2-phenyl-1,3-thiazol-4-yl)phenoxy]pentoxy)-benzamidine]
inhibition at 1 µM [1, 2]: 72.1% | Survival rates of the cells (cells; MC3T3-E1 cells): 100.0% | Survival rates of the cells (cells; ST2 cells): 51.2%

N=C(NO)c1ccc(OCCCCCOc2ccc(-c3nc(-c4cccnc4)sc3CC3CCCC3)cc2)cc1 [Example 49, N-hydroxy-4-(5-[4-(5-cyclopentylmethyl-2-pyridin-3-yl-1,3-thiazol-4-yl)phenoxy]pentoxy)-benzamidine]
inhibition at 1 µM [1, 2]: 77.1% | Survival rates of the cells (cells; MC3T3-E1 cells): 83.5% | Survival rates of the cells (cells; ST2 cells): 39.0%

N=C(NO)c1ccc(OCCCCCOc2ccc(-c3nc(C4CCCCC4)sc3CC3CCCC3)cc2)cc1 [Example 50, N-hydroxy-4-(5-[4-(5-cyclopentylmethyl-2-cyclohexyl-1,3-thiazol-4-yl)phenoxy]pentoxy)-benzamidine]
inhibition at 1 µM [1]: 79.8% | Survival rates of the cells (cells; MC3T3-E1 cells): 81.0% | Survival rates of the cells (cells; ST2 cells): 61.0%

CCCCCc1nc(-c2ccc(OCCCCCOc3ccc(C(=N)NO)cc3)cc2)c(CC2CCCC2)s1 [Example 51, N-hydroxy-4-(5-[4-(5-cyclopentylmethyl-2-pentyl-1,3-thiazol-4-yl)phenoxy]pentoxy)-benzamidine]
inhibition at 1 µM [1]: 74.8% | Survival rates of the cells (cells; MC3T3-E1 cells): 95.5% | Survival rates of the cells (cells; ST2 cells): 66.5%

N=C(NO)c1ccc(OCCCCCOc2ccc(-c3csc(N)n3)cc2)cc1 [Example 57, N-hydroxy-4-(5-[4-(2-amino-1,3-thiazol-4-yl)phenoxy]pentoxy)-benzamidine]
inhibition at 1 µM [1, 2]: 60.4% | Survival rates of the cells (cells; MC3T3-E1 cells): 52.1% | Survival rates of the cells (cells; ST2 cells): 19.9%

CCCCc1sc(N)nc1-c1ccc(OCCCCCOc2ccc(C(=N)NO)cc2)cc1 [Example 63, N-hydroxy-4-(5-[4-(2-amino-5-butyl-1,3-thiazol-4-yl)phenoxy]pentoxy)-benzamidine]
inhibition at 1 µM [1, 3]: 56.5% | Survival rates of the cells (cells; MC3T3-E1 cells): 52.5% | Survival rates of the cells (cells; ST2 cells): 29.3%

N=C(NO)c1ccc(OCCCCCOc2ccc(-c3nc(N)sc3CC3CCCC3)cc2)cc1 [Example 67, N-hydroxy-4-(5-[4-(2-amino-5-cyclopentylmethyl-1,3-thiazol-4-yl)phenoxy]pentoxy)-benzamidine]
inhibition at 1 µM [1, 3]: 81.4% | Survival rates of the cells (cells; MC3T3-E1 cells): 68.9% | Survival rates of the cells (cells; ST2 cells): 40.0%

CNc1nc(-c2ccc(OCCCCCOc3ccc(C(=N)NO)cc3)cc2)c(C)s1 [Example 86, N-hydroxy-4-(5-[4-(5-methyl-2-methylamino-1,3-thiazol-4-yl)phenoxy]pentoxy)-benzamidine]
inhibition at 1 µM [1, 3]: 52.9% | Survival rates of the cells (cells; MC3T3-E1 cells): 100.0% | Survival rates of the cells (cells; ST2 cells): 48.6%

CCNc1nc(-c2ccc(OCCCCCOc3ccc(C(=N)NO)cc3)cc2)c(C)s1 [Example 87, N-hydroxy-4-(5-[4-(2-ethylamino-5-methyl-1,3-thiazol-4-yl)phenoxy]pentoxy)-benzamidine]
inhibition at 1 µM [1, 3]: 58.1% | Survival rates of the cells (cells; MC3T3-E1 cells): 97.3% | Survival rates of the cells (cells; ST2 cells): 49.8%

CCCNc1nc(-c2ccc(OC(C)CCCOc3ccc(C(=N)NO)cc3)cc2)c(C)s1 (stereo not drawn) [Example 88, N-hydroxy-4-(4-[4-(5-methyl-2-propylamino-1,3-thiazol-4-yl)phenoxy]pentoxy)-benzamidine]
inhibition at 1 µM [1, 3]: 15.9% | Survival rates of the cells (cells; MC3T3-E1 cells): 94.3% | Survival rates of the cells (cells; ST2 cells): 48.7%

Cc1sc(NC(=O)c2ccncc2)nc1-c1ccc(OCCCCCOc2ccc(C(=N)NO)cc2)cc1 [Example 91, N-hydroxy-4-(5-[4-(5-methyl-2-(4-pyridylcarbonyl)amino-1,3-thiazol-4-yl)phenoxy]pentoxy)-benzamidine]
inhibition at 1 µM [1, 3]: 92.9% | Survival rates of the cells (cells; MC3T3-E1 cells): 41.3% | Survival rates of the cells (cells; ST2 cells): 20.8%

CCS(=O)(=O)Nc1nc(-c2ccc(OCCCCCOc3ccc(C(=N)NO)cc3)cc2)c(C)s1 [Example 93, N-hydroxy-4-(5-[4-(2-ethanesulfonylamino-5-methyl-1,3-thiazol-4-yl)phenoxy]pentoxy)-benzamidine]
inhibition at 1 µM [1, 3]: 63.7% | Survival rates of the cells (cells; MC3T3-E1 cells): 66.8% | Survival rates of the cells (cells; ST2 cells): 55.0%

CCc1sc(NC)nc1-c1ccc(OCCCCCOc2ccc(C(=N)NO)cc2)cc1 [Example 96, N-hydroxy-4-(5-[4-(5-ethyl-2-methylamino-1,3-thiazol-4-yl)phenoxy]pentoxy)-benzamidine]
inhibition at 1 µM [1, 3]: 64.3% | Survival rates of the cells (cells; MC3T3-E1 cells): 65.1% | Survival rates of the cells (cells; ST2 cells): 27.8%

CCCNc1nc(-c2ccc(OCCCCCOc3ccc(C(=N)NO)cc3)cc2)c(CC)s1 [Example 98, N-hydroxy-4-(5-[4-(5-ethyl-2-propylamino-1,3-thiazol-4-yl)phenoxy]pentoxy)-benzamidine]
inhibition at 1 µM [1, 3]: 94.7% | Survival rates of the cells (cells; MC3T3-E1 cells): 77.1% | Survival rates of the cells (cells; ST2 cells): 26.9%

CCc1sc(NC(=O)c2ccncc2)nc1-c1ccc(OCCCCCOc2ccc(C(=N)NO)cc2)cc1 [Example 100, N-hydroxy-4-(5-[4-(5-ethyl-2-(4-pyridylcarbonyl)amino-1,3-thiazol-4-yl)phenoxy]pentoxy)-benzamidine]
inhibition at 1 µM [1, 3]: 63% | Survival rates of the cells (cells; MC3T3-E1 cells): 62.8% | Survival rates of the cells (cells; ST2 cells): 39.1%
